{
  "source": "patent US8927563B2",
  "about": "“Kinase inhibitor” (Respivert Limited, priority 2013, dated 2015)",
  "key": {"p38 MAPKα [1]": {"target": "T1, p38 MAPKα (Homo sapiens (Human), UniProt Q16539)", "T1 sequence (Q16539 whole entry, looked up)": "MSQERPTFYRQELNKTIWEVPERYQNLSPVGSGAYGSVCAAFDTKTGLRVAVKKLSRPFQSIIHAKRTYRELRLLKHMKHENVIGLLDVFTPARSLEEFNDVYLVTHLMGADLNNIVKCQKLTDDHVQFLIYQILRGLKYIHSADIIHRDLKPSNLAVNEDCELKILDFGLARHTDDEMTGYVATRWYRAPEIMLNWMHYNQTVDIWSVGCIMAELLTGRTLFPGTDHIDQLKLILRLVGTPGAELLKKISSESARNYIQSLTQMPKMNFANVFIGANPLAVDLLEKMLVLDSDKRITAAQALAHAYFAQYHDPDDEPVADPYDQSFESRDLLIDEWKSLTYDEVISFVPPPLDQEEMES", "assay": "KINOMEscan dissociation constant, p38 MAPKα", "format": "binding", "method": "(§1) Kinase enzyme binding activities of compounds disclosed herein may be determined using a proprietary assay which measures active site-directed competition binding to an immobilized ligand (Fabian, M. A. et al., Nature Biotechnol., 2005, 23:329-336). These assays may be conducted by DiscoverX (formerly Ambit; San Diego, Calif.). The percentage inhibition produced by incubation with a test compound may be calculated relative to the non-inhibited control."}, "B-Raf (V600E)": {"target": "B-Raf (V600E) (Homo sapiens (Human), UniProt P15056, V600E)", "sequence (P15056 whole entry V600E)": "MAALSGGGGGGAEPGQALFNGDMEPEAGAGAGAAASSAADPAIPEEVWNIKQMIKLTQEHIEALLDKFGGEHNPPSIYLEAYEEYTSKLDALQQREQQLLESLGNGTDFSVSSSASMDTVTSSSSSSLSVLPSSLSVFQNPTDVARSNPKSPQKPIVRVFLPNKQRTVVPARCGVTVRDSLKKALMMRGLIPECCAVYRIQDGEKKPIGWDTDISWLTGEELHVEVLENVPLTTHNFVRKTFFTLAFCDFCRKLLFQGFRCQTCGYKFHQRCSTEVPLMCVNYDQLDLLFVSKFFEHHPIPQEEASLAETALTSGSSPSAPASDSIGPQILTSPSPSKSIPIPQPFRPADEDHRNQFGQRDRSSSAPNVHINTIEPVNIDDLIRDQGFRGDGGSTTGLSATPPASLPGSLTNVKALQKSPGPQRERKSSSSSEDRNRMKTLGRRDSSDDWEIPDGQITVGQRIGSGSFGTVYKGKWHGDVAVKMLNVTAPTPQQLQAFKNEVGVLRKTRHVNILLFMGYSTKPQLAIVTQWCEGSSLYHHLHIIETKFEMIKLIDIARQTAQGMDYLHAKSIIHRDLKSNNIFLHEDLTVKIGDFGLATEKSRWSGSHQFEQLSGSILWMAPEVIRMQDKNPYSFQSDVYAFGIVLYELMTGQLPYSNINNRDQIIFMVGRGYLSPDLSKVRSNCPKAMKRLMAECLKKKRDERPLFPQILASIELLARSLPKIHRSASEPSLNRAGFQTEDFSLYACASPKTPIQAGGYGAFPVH", "assay": "KINOMEscan binding of B-Raf (V600E) to standard ligand", "method": "as §1"}, "non-mutant kinases": {"test_system": "non-mutant kinases", "assay": "KinomeScan selectivity scores", "format": "binding", "method": "as §1"}, "p38 MAPKα [2]": {"target": "T1, p38 MAPKα", "assay": "p38 MAPKα enzyme inhibition (Method 2), Z-LYTE FRET", "format": "biochemical", "method": "The enzyme inhibitory activities of compounds disclosed herein are determined by FRET using synthetic peptides labelled with both donor and acceptor fluorophores (Z-LYTE, Invitrogen Ltd., Paisley, UK).\nThe inhibitory activities of test compounds against the p38 MAPKα isoform (MAPK14: Invitrogen) are evaluated indirectly by determining the level of activation/phosphorylation of the down-stream molecule, MAPKAP-K2. The p38 MAPKα protein (80 ng/mL, 2.5 μL) is mixed with the test compound (2.5 μL of either 4 μg/mL, 0.4 μg/mL, […] or 0.004 μg/mL) for 2 hr at RT. […] The mixture is incubated for 1 hr at RT. Development reagent (protease, 5 μL) is added for 1 hr prior to detection in a fluorescence microplate reader (Varioskan® Flash, ThermoFisher Scientific). […]\nIn all cases, the site-specific protease cleaves non-phosphorylated peptide only and eliminates the FRET signal. Phosphorylation levels of each reaction are calculated using the ratio of coumarin emission (donor) over fluorescein emission (acceptor), for which high ratios indicate high phosphorylation and low ratios indicate low phosphorylation levels."}, "TNBS-induced colitis": {"test_system": "TNBS-induced colitis", "assay": "TNBS-induced colitis in mice", "format": "in vivo", "method": "Non-fasted, 10-12 week old, male BDF1 mice are dosed by oral gavage twice daily with either vehicle (5 mL/kg), reference item (Budesonide 2.5 mg/kg) or test compound (1 or 5 mg/kg) one day before (Day −1) stimulation of the inflammatory response by treatment with 2,4,6-trinitrobenzenesulphonic acid (TNBS) (15 mg/mL in 50% ethanol/50% saline). On Day 0 of the study, TNBS (200 μL) is administered intra-colonically via a plastic catheter with BID dosing of the vehicle, reference or test compound continuing for 2 or 4 days. During the study, animals are weighed every day and stool observations are made and recorded as a score, based on stool consistency. At the time of sacrifice on Day 2 (or Day 4), the large intestine is removed and the length and weight recorded. Sections of the colon are taken for histopathology scoring to determine disease severity."}, "[3]": {"test_system": "adoptive transfer colitis", "assay": "Adoptive transfer mouse model", "format": "in vivo, mice", "method": "On Study day 0, female Balb/C mice are terminated and spleens obtained for CD45RB^high cell isolation (Using SCID IBD cell Separation protocol). Approximately 4×10^5 cells/mL CD45RB^high cells are then injected intraperitoneally (100 μL/mouse) into female SCID animals. On study day 14, mice are weighed and randomized into treatment groups based on body weight. On Day 14, the compound is administered BID, via oral gavage, in a vehicle comprising a defined mixture of corn oil (32.5%), transcutol (20%), maisine (12.5%) and cremophor ELP (35%) at the dose levels outlined below in Tables 6a and 6b and a dose volume of 5 mL/kg. Treatment continues until study day 42, at which point the animals are necropsied 4 hours after the morning administration. The colon length and weight are recorded and used as a secondary endpoint in the study as a measurement of colon oedema. The colon is then divided into six cross-sections, four of which are used for histopathology scoring (primary endpoint) and two are homogenised for cytokine analysis. Data shown is the % inhibition of the induction window between naïve animals and vehicle animals, where higher inhibition implies closer to the non-diseased, naïve, phenotype."}, "[4]": {"assay": "Human hepatocyte stability test", "format": "in vitro ADME", "settings": "human hepatocytes", "method": "(§2) Assessment of certain in vitro ADME (absorption, distribution, metabolism, and excretion) parameters for Compound I was conducted by BioFocus (Saffron Walden, UK). The results reveal that Compound I is cleared rapidly by human hepatocytes and that it has a reduced liability for time-dependent cytochrome P450 inhibition."}, "human hepatocytes": {"test_system": "human hepatocytes", "assay": "Human hepatocyte stability test", "format": "in vitro ADME", "method": "as §2"}, "CYP3A4": {"target": "CYP3A4 (Homo sapiens (Human), UniProt P08684)", "sequence (P08684 whole entry)": "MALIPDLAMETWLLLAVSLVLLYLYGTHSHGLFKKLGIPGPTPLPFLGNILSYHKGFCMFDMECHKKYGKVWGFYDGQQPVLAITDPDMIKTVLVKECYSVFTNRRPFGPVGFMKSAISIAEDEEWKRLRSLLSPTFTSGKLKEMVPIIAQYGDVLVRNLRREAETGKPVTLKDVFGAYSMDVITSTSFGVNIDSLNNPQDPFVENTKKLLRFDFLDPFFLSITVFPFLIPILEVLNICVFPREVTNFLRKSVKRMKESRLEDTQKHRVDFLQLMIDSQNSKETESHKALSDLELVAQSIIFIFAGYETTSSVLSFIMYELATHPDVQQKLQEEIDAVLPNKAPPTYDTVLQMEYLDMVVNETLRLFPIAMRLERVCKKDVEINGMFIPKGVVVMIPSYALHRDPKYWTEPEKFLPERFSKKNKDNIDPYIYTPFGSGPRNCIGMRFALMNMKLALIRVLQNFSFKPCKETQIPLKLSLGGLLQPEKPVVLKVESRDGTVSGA", "assay": "CYP3A4 inhibition with and without preincubation", "format": "in vitro ADME", "settings": "for inhibition at 15 µM: human, read-out: 15 μM % Inh", "method": "as §2"}, "[5]": {"settings": "5 mg/kg orally BID, 2 days, SMEDDS vehicle"}},
  "note": "Read-outs that look alike come from different tables or passages of the source.",
  "data": [
    {"smiles": "C#Cc1cc(Nc2nccc(Oc3ccc(NC(=O)Nc4cc(C(C)(C)C)cc(NS(C)(=O)=O)c4OC)c4ccccc34)n2)cc(C(=O)NCCOCCOCCOC)c1", "note": "[Compound I, 3-((4-((4-(3-(5-(tert-Butyl)-2-methoxy-3-(methylsulfonamido)phenyl)ureido)naphthalen-1-yl)oxy)pyrimidin-2-yl)amino)-5-ethynyl-N-(2-(2-(2-methoxyethoxy)ethoxy)ethyl)benzamide]", "values": [
      {"measurement": "Kd", "setting": "p38 MAPKα [1]", "result": 9, "unit": "nM"},
      {"measurement": "effect on binding of B-Raf (V600E) to its standard ligand", "setting": "B-Raf (V600E)", "result": "did not have any significant effect"},
      {"measurement": "number of individual kinase hits, S(1)", "setting": "non-mutant kinases; 50 nM, % Ctrl <1", "result": 0},
      {"measurement": "KinomeScan Selectivity Score S(10)", "setting": "non-mutant kinases; 50 nM, % Ctrl <10", "result": 0.023},
      {"measurement": "number of individual kinase hits, S(10)", "setting": "non-mutant kinases; 50 nM, % Ctrl <10", "result": 9},
      {"measurement": "KinomeScan Selectivity Score S(35)", "setting": "non-mutant kinases; 50 nM, % Ctrl <35", "result": 0.068},
      {"measurement": "number of individual kinase hits, S(35)", "setting": "non-mutant kinases; 50 nM, % Ctrl <35", "result": 27},
      {"measurement": "KinomeScan Selectivity Score S(1)", "setting": "non-mutant kinases; 500 nM, % Ctrl <1", "result": 0.038},
      {"measurement": "number of individual kinase hits, S(1)", "setting": "non-mutant kinases; 500 nM, % Ctrl <1", "result": 15},
      {"measurement": "number of individual kinase hits, S(10)", "setting": "non-mutant kinases; 500 nM, % Ctrl <10", "result": 51},
      {"measurement": "number of individual kinase hits, S(35)", "setting": "non-mutant kinases; 500 nM, % Ctrl <35", "result": 78},
      {"measurement": "IC50", "setting": "p38 MAPKα [2]", "result": 224, "unit": "nM"},
      {"measurement": "LP inflammation", "setting": "TNBS-induced colitis; [5]", "result": "3.8 ± 0.4"},
      {"measurement": "Ulcer grade", "setting": "TNBS-induced colitis; [5]", "result": "3.6 ± 0.5"},
      {"measurement": "inflammatory cell infiltrate in the reticular and laminar propria zones", "setting": "TNBS-induced colitis; dosed orally at 5 mg/kg", "result": "marked reduction"},
      {"measurement": "ulcer grade and epithelial repair compared to the vehicle control", "setting": "TNBS-induced colitis; dosed orally at 5 mg/kg", "result": "marked improvements"},
      {"measurement": "IFNγ level in colon tissue", "setting": "[3]; 3 mg/kg", "result": "10.8 ± 3.3", "unit": "pg/mL"},
      {"measurement": "IL-8 level in colon tissue", "setting": "[3]; 3 mg/kg", "result": "70.8 ± 22.8", "unit": "pg/mL"},
      {"measurement": "Colon weight:length", "setting": "[3]; 3 mg/kg BID oral", "result": "0.024 ± 0.003"},
      {"measurement": "% Inhibition of induction window between naïve and vehicle animals", "setting": "[3]; 3 mg/kg BID oral, colon weight:length", "result": 90, "unit": "%"},
      {"measurement": "Colon weight:length", "setting": "[3]; additional study, 0.03 mg/kg", "result": "0.033 ± 0.002"},
      {"measurement": "Colon weight:length", "setting": "[3]; additional study, 0.3 mg/kg", "result": "0.041 ± 0.005"},
      {"measurement": "Colon weight:length", "setting": "[3]; additional study, 3 mg/kg", "result": "0.034 ± 0.003"},
      {"measurement": "half-life", "setting": "[4]", "result": 34, "unit": "min"},
      {"measurement": "hepatocyte CLint", "setting": "[4]; read-out: Mean intrinsic clearance", "result": 41, "unit": "µL/min/1e6 cells"},
      {"measurement": "Mean hepatic extraction ratio", "setting": "human hepatocytes", "result": 0.85},
      {"measurement": "IC50", "setting": "CYP3A4; CYP3A4, 0 min preincubation", "result": "> 15000", "unit": "nM"},
      {"measurement": "IC50", "setting": "CYP3A4; CYP3A4, 30 min preincubation", "result": 7800, "unit": "nM"},
      {"measurement": "inhibition at 15 µM", "setting": "CYP3A4; CYP3A4, 0 min preincubation", "result": 31, "unit": "%"},
      {"measurement": "inhibition at 15 µM", "setting": "CYP3A4; CYP3A4, 30 min preincubation", "result": 54, "unit": "%"}
    ]}
  ]
}
